Test results: PubChem BioAssay AID248 (DTP/NCI, 2004)
Where “and” joins values, the source holds several entries; their conditions need not be identical. Identical values can stand only once. Inconclusive results and toxic doses are left out.

Tested on: L1210 leukemia ip in BDF1 mice, survival T/C
Experiment: NCI In Vivo Anticancer Drug Screen. Data for tumor model L1210 Leukemia (intraperitoneal) in B6D2F1 (BDF1) mice
Settings: endpoint: mean survival time, higher = longer survival
In short: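 Tumor cells were implanted, animals were treated, and survival was followed. The result divides the treated measurement by the vehicle-control measurement.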

[1] = dose: 100.0 mg/kg/injection, schedule: Q01DX001 (ip), vehicle: saline
[2] = dose: 200.0 mg/kg/injection, schedule: Q01DX001 (ip), vehicle: saline
[3] = dose: 400.0 mg/kg/injection, schedule: Q01DX001 (ip), vehicle: saline
[4] = dose: 100.0 mg/kg/injection, schedule: Q01DX009 (ip), vehicle: saline
[5] = dose: 200.0 mg/kg/injection, schedule: Q01DX009 (ip), vehicle: saline
[6] = dose: 400.0 mg/kg/injection, schedule: Q01DX009 (ip), vehicle: saline

SMILES: CN(C)CC/C=C1\c2ccccc2Sc2ccc(Cl)cc21
- T/C (dose: 0.04 mg/kg/injection, schedule: Q03HX024 (ip), vehicle: saline): 107 % of control
- T/C (dose: 0.09 mg/kg/injection, schedule: Q03HX024 (ip), vehicle: saline): 105 % of control
- T/C (dose: 0.18 mg/kg/injection, schedule: Q03HX024 (ip), vehicle: saline): 102 % of control
- T/C (dose: 0.36 mg/kg/injection, schedule: Q01DX001 (ip), vehicle: Klucel (hydroxypropylcellulose) (HPC)): 102 % of control
- T/C (dose: 0.37 mg/kg/injection, schedule: Q03HX024 (ip), vehicle: saline): 105 % of control
- T/C (dose: 0.73 mg/kg/injection, schedule: Q01DX001 (ip), vehicle: Klucel (hydroxypropylcellulose) (HPC)): 97 % of control
- T/C (dose: 0.74 mg/kg/injection, schedule: Q03HX024 (ip), vehicle: saline): 107 % of control
- T/C (dose: 1.46 mg/kg/injection, schedule: Q01DX001 (ip), vehicle: Klucel (hydroxypropylcellulose) (HPC)): 108 % of control
- T/C (dose: 1.49 mg/kg/injection, schedule: Q03HX024 (ip), vehicle: Klucel (hydroxypropylcellulose) (HPC)): 103 % of control
- T/C (dose: 2.92 mg/kg/injection, schedule: Q01DX001 (ip), vehicle: Klucel (hydroxypropylcellulose) (HPC)): 105 % of control
- T/C (dose: 3.8 mg/kg/injection, schedule: Q01DX001 (ip), vehicle: Klucel (hydroxypropylcellulose) (HPC)): 107 % of control
- T/C (dose: 3.9 mg/kg/injection, schedule: Q01DX009 (ip), vehicle: Klucel (hydroxypropylcellulose) (HPC)): 105 % of control
- T/C (dose: 5.6 mg/kg/injection, schedule: Q01DX001 (ip), vehicle: saline): 101 % of control
- T/C (dose: 5.85 mg/kg/injection, schedule: Q01DX001 (ip), vehicle: Klucel (hydroxypropylcellulose) (HPC)): 105 % of control
- T/C (dose: 7.5 mg/kg/injection, schedule: Q01DX001 (ip), vehicle: Klucel (hydroxypropylcellulose) (HPC)): 104 % of control
- T/C (dose: 7.81 mg/kg/injection, schedule: Q01DX009 (ip), vehicle: Klucel (hydroxypropylcellulose) (HPC)): 92 % of control
- T/C (dose: 11.25 mg/kg/injection, schedule: Q01DX001 (ip), vehicle: saline): 104 % of control
- T/C (dose: 15.0 mg/kg/injection, schedule: Q01DX001 (ip), vehicle: Klucel (hydroxypropylcellulose) (HPC)): 107 % of control
- T/C (dose: 15.62 mg/kg/injection, schedule: Q01DX009 (ip), vehicle: Klucel (hydroxypropylcellulose) (HPC)): 110 % of control
- T/C (dose: 22.5 mg/kg/injection, schedule: Q01DX001 (ip), vehicle: saline): 101 % of control
- T/C (dose: 23.43 mg/kg/injection, schedule: Q01DX001 (ip), vehicle: Klucel (hydroxypropylcellulose) (HPC)): 121 % of control
- T/C (dose: 30.0 mg/kg/injection, schedule: Q01DX001 (ip), vehicle: Klucel (hydroxypropylcellulose) (HPC)): 112 % of control
- T/C (dose: 31.25 mg/kg/injection, schedule: Q01DX009 (ip), vehicle: Klucel (hydroxypropylcellulose) (HPC)): 108 % of control
- T/C (dose: 31.25 mg/kg/injection, schedule: Q04DX003 (ip), vehicle: Klucel (hydroxypropylcellulose) (HPC)): 107 % of control

SMILES: OCCCc1ccccc1O
- T/C (dose: 50.0 mg/kg/injection, schedule: Q01DX001 (ip), vehicle: saline): 102 % of control
- T/C [1]: 102 % of control
- T/C [2]: 94 % of control
- T/C [3]: 91 % of control

SMILES: CC(C)C/C=N/Nc1ccnc(SCc2ccccc2)n1
- T/C (dose: 100.0 mg/kg/injection, schedule: Q04DX003 (ip), vehicle: DMSO): 95 % of control
- T/C (dose: 200.0 mg/kg/injection, schedule: Q04DX003 (ip), vehicle: DMSO): 103 % of control
- T/C (dose: 400.0 mg/kg/injection, schedule: Q04DX003 (ip), vehicle: DMSO): 95 % of control

SMILES: COC(C#N)C(=N)CC#N (stereo unspecified)
- T/C (dose: 9.5 mg/kg/injection, schedule: Q01DX001 (ip), vehicle: saline): 107 % of control
- T/C (dose: 19.0 mg/kg/injection, schedule: Q01DX001 (ip), vehicle: saline): 101 % of control

SMILES: CSC(C#N)NC(=O)c1ccc([N+](=O)[O-])cc1 (stereo unspecified)
- T/C (dose: 50.0 mg/kg/injection, schedule: Q04DX002 (ip), vehicle: Klucel (hydroxypropylcellulose) (HPC)): 98 % of control
- T/C (dose: 100.0 mg/kg/injection, schedule: Q04DX002 (ip), vehicle: Klucel (hydroxypropylcellulose) (HPC)): 97 % of control and 109 % of control
- T/C (dose: 200.0 mg/kg/injection, schedule: Q04DX002 (ip), vehicle: Klucel (hydroxypropylcellulose) (HPC)): 98 % of control and 109 % of control

SMILES: CC1CCCCC1NC(=O)NCCOC(=O)OCCNC(=O)NC1CCCCC1C (stereo unspecified)
- T/C (dose: 100.0 mg/kg/injection, schedule: Q01DX009 (ip), vehicle: saline with Tween-80): 95 % of control
- T/C (dose: 100.0 mg/kg/injection, schedule: Q04DX003 (ip), vehicle: saline with Tween-80): 100 % of control
- T/C (dose: 200.0 mg/kg/injection, schedule: Q01DX009 (ip), vehicle: saline with Tween-80): 95 % of control
- T/C (dose: 200.0 mg/kg/injection, schedule: Q04DX003 (ip), vehicle: saline with Tween-80): 91 % of control
- T/C (dose: 400.0 mg/kg/injection, schedule: Q01DX009 (ip), vehicle: saline with Tween-80): 90 % of control
- T/C (dose: 400.0 mg/kg/injection, schedule: Q04DX003 (ip), vehicle: saline with Tween-80): 86 % of control

SMILES: CCCSCCCC(=O)O
- T/C (dose: 100.0 mg/kg/injection, schedule: Q01DX009 (ip), vehicle: Klucel (hydroxypropylcellulose) (HPC)): 88 % of control
- T/C (dose: 200.0 mg/kg/injection, schedule: Q01DX009 (ip), vehicle: Klucel (hydroxypropylcellulose) (HPC)): 97 % of control

SMILES: Cc1cc(C(C(N)=O)c2ccccc2)ccc1N(CCCl)CCCl (stereo unspecified)
- T/C (dose: 2.0 mg/kg/injection, schedule: Q01DX009 (ip), vehicle: carboxymethylcellulose (CMC)): 116 % of control
- T/C (dose: 3.7 mg/kg/injection, schedule: Q01DX015 (ip), vehicle: carboxymethylcellulose (CMC)): 121 % of control
- T/C (dose: 4.0 mg/kg/injection, schedule: Q01DX009 (ip), vehicle: carboxymethylcellulose (CMC)): 124 % of control
- T/C (dose: 7.2 mg/kg/injection, schedule: Q04DX003 (ip), vehicle: acetone): 104 % of control
- T/C (dose: 20.0 mg/kg/injection, schedule: Q01DX009 (ip), vehicle: Klucel (hydroxypropylcellulose) (HPC)): 153 % of control
- T/C (dose: 21.0 mg/kg/injection, schedule: Q04DX003 (ip), vehicle: acetone): 109 % of control and 121 % of control
- T/C (dose: 21.0 mg/kg/injection, schedule: Q04DX003 (ip), vehicle: saline): 112 % of control
- T/C (dose: 33.0 mg/kg/injection, schedule: Q04DX003 (ip), vehicle: saline): 118 % of control
- T/C (dose: 37.5 mg/kg/injection, schedule: Q01DX009 (ip), vehicle: saline with Tween-80): 86 % of control
- T/C (dose: 40.0 mg/kg/injection, schedule: Q01DX009 (ip), vehicle: Klucel (hydroxypropylcellulose) (HPC)): 101 % of control
- T/C (dose: 45.0 mg/kg/injection, schedule: Q01DX015 (ip), vehicle: carboxymethylcellulose (CMC)): 95 % of control
- T/C (dose: 49.0 mg/kg/injection, schedule: Q04DX003 (ip), vehicle: acetone): 120 % of control
- T/C (dose: 50.0 mg/kg/injection, schedule: Q01DX001 (ip), vehicle: carboxymethylcellulose (CMC)): 114 % of control
- T/C (dose: 50.0 mg/kg/injection, schedule: Q04DX003 (ip), vehicle: acetone): 123 % of control
- T/C (dose: 50.0 mg/kg/injection, schedule: Q04DX003 (ip), vehicle: saline): 106 % of control
- T/C (dose: 64.0 mg/kg/injection, schedule: Q01DX009 (ip), vehicle: carboxymethylcellulose (CMC)): 106 % of control
- T/C (dose: 66.0 mg/kg/injection, schedule: Q01DX001 (ip), vehicle: saline): 116 % of control
- T/C (dose: 66.0 mg/kg/injection, schedule: Q04DX003 (ip), vehicle: acetone): 112 % of control
- T/C (dose: 88.8 mg/kg/injection, schedule: Q01DX001 (ip), vehicle: carboxymethylcellulose (CMC)): 123 % of control
- T/C (dose: 100.0 mg/kg/injection, schedule: Q01DX001 (ip), vehicle: carboxymethylcellulose (CMC)): 112 % of control
- T/C [1]: 100 % of control
- T/C (dose: 150.0 mg/kg/injection, schedule: Q04DX003 (ip), vehicle: acetone): 96 % of control
- T/C (dose: 300.0 mg/kg/injection, schedule: Q01DX001 (ip), vehicle: carboxymethylcellulose (CMC)): 152 % of control

SMILES: CCOP(=O)(OCC)Oc1c(Cl)c(Cl)c(O)c(Cl)c1Cl
- T/C (dose: 100.0 mg/kg/injection, schedule: Q04DX002 (ip), vehicle: saline with Tween-80): 91 % of control
- T/C (dose: 200.0 mg/kg/injection, schedule: Q04DX002 (ip), vehicle: saline with Tween-80): 100 % of control

SMILES: COc1nc2c(=O)[nH]cnc2n1C1OC(CO)C(O)C1O (stereo unspecified)
- T/C [1]: 96 % of control
- T/C [2]: 100 % of control
- T/C [3]: 97 % of control

SMILES: C1=C(N2CCOCC2)CCCCC1
- T/C [4]: 108 % of control
- T/C [5]: 109 % of control
- T/C [6]: 108 % of control

SMILES: CC(COC(=O)c1ccccc1)NC1CCCC1 (stereo unspecified)
- T/C (dose: 75.0 mg/kg/injection, schedule: Q01DX001 (ip), vehicle: other): 96 % of control
- T/C (dose: 150.0 mg/kg/injection, schedule: Q01DX001 (ip), vehicle: other): 108 % of control
- T/C (dose: 300.0 mg/kg/injection, schedule: Q01DX001 (ip), vehicle: other): 107 % of control

SMILES: O=C1OC(CO)C(OC2OC(CO)C(O)C(O)C2O)C(O)C1O (stereo unspecified)
- T/C [4]: 97 % of control
- T/C [5]: 98 % of control
- T/C [6]: 97 % of control
